Experimental data published in article PMC9369442, “Synthetic Peucedanocoumarin IV Prevents α-Synuclein Neurotoxicity in an Animal Model of Parkinson’s Disease” (International Journal of Molecular Sciences, 2022).

Key:
[1] = system: α-synuclein PFF-treated mice cortical neurons; assay: PFF-induced neurotoxicity in cortical neurons, CCK-8 assay; type: cell-based, mouse; settings: CCK-8, 14 days PFF, 1 μM every 2 days
Method: Figure 2 PCiv prevents α-synuclein aggregation in vitro and in cultured neurons with PFF treatment. (A) Representative Western blots showing the degree of recombinant α-synuclein (αSyn) aggregation in a test tube in the presence or absence of PCiv (100 μM) at the indicated incubation duration (phosphate-buffered saline [PBS], 37 °C for 3 or 5 days). Aggregation of α-synuclein was determined using α-synuclein antibody. (B) Quantification of the relative amount of α-synuclein aggregate in high molecular weight sizes in panel A (n = 3 per group). (C) Representative immunofluorescence of MAP2 and Lewy-like inclusion marker pS129-αSyn in mice cortical neurons treated with α-synuclein preformed fibril (PFF) (1 μg, for 14 days). […] (D) Quantification of pS129-αSyn immunofluorescence signal intensities in MAP2-positive cortical neurons in each experimental group (n = 15 cells from three separate experiments). (E) Cell viability assessment in the indicated experimental groups was monitored by CCK-8 assay (n = 3 per group). The data are expressed as means ± SEMs. * p < 0.05, ** p < 0.01, *** p < 0.001, and **** p < 0.0001, ANOVA test followed by Tukey’s post hoc analysis.
CD1 mice were purchased from Orient Co. for use in the mouse primary neuron culture. […] The optical value was read at 450 nm using a multi-detection microplate reader (Synergy, BioTek Instruments Inc., Winooski, VT, USA).

[2] = system: α-synuclein PFF-treated mice cortical neurons; assay: PFF-induced α-synucleinopathy in primary cortical neurons, immunofluorescence; type: cell-based, mouse; settings: for endogenous α-synuclein expression: PBS- or PFF-treated mouse cortical neurons
Method: Figure 2 PCiv prevents α-synuclein aggregation in vitro and in cultured neurons with PFF treatment. (A) Representative Western blots showing the degree of recombinant α-synuclein (αSyn) aggregation in a test tube in the presence or absence of PCiv (100 μM) at the indicated incubation duration (phosphate-buffered saline [PBS], 37 °C for 3 or 5 days). Aggregation of α-synuclein was determined using α-synuclein antibody. (B) Quantification of the relative amount of α-synuclein aggregate in high molecular weight sizes in panel A (n = 3 per group). (C) Representative immunofluorescence of MAP2 and Lewy-like inclusion marker pS129-αSyn in mice cortical neurons treated with α-synuclein preformed fibril (PFF) (1 μg, for 14 days). To evaluate the protective effects of PCiv as compared with PCiii, these compounds were treated (1 μM every 2 days for 14 days) following the PFF treatment. (D) Quantification of pS129-αSyn immunofluorescence signal intensities in MAP2-positive cortical neurons in each experimental group (n = 15 cells from three separate experiments). (E) Cell viability assessment in the indicated experimental groups was monitored by CCK-8 assay (n = 3 per group). The data are expressed as means ± SEMs. * p < 0.05, ** p < 0.01, *** p < 0.001, and **** p < 0.0001, ANOVA test followed by Tukey’s post hoc analysis.
CD1 mice were purchased from Orient Co. for use in the mouse primary neuron culture. E14 embryos from CD1 mice were dissected for primary cortical neurons in Neurobasal A medium (Gibco, Thermo Fisher Scientific Inc., Waltham, MA, USA) supplemented with B-27 (Gibco, Thermo Fisher Scientific Inc., Waltham, MA, USA) and 1 mM L-glutamine. Next, the primary cortical neurons were maintained in a poly L-lysine-coated tissue culture plate, and the medium was changed every 2–3 days. After 7 days, PFF was added to the cortical neurons and incubated for 14 days to observe the p-S129-α-synuclein signal which was used for immunofluorescence analysis. […] The optical value was read at 450 nm using a multi-detection microplate reader (Synergy, BioTek Instruments Inc., Winooski, VT, USA). […]
(A) Representative Western blots showing the degree of recombinant α-synuclein (αSyn) aggregation in a test tube in the presence or absence of t-Khellatone, PCiii, and PCiv (100 μM) at 0 and 5 days of incubation (phosphate-buffered saline [PBS], 37 °C for 5 days). Aggregation of α-synuclein was determined using α- synuclein antibody. (B) Quantification of relative amount of α-synuclein aggregate in high molecular weight sizes in panel A (n = 3 per group). […] (D) Quantification of filament conformation-αSyn (Filament) immunofluorescence signal intensities in MAP2 -positive cortical neurons in each experimental group (n = 15 cells from three separate experiments). […]

[3] = system: SH-SY5Y cells with Tet-Off conditional expression of β23; assay: Trypan blue exclusion cell viability assay, Tet-Off β23 expression; type: cell-based; settings: for effect on β23-induced cytotoxicity: 1 μM, 24 h; for EC50: Homo sapiens, Tet-Off β23, trypan blue exclusion, read-out: median effective concentration, cytoprotection against β23 toxicity; for cytotoxicity of the compound at high concentrations: up to 4 µM
Method: Figure 1 Peucedanocoumarin IV (PCiv) inhibits β23 aggregations and cytotoxicity in SH-SY5Y cells. (A) Scheme showing the detailed experimental steps in the organic synthesis of racemic PCiv and racemic PCiii (rac-PCiii, and rac-PCiv). Both PCiii and PCiv used in this study are racemic forms. (B) Trypan blue exclusion cell viability assessment in SH-SY5Y cells with Tet-Off-induced β23 expressions. β23 was expressed for 24 h using the Tet-off system. Further expression of β23 was halted by doxycycline (Dox) treatment with simultaneous treatment of the PCiii, PCiv, or their synthetic intermediate, trans-khellatone (t-khellatone, 1 μM 24 h). Cell viability was assessed 24 h after doxycycline treatment (n = 5 per group). (C) Synthetic PCiv’s protective effect on Tet-Off-expressed β23 toxicity in SH-SY5Y cells compared with peucedanocoumarin III (PCiii) determined by trypan blue exclusion assay. (D) The degradation of β23 monitored by Western blot at 37 h after doxycycline (200 ng/mL) treatment. The representative Western blot image of HA (β23) in SH-SY5Y cells treated with synthetic PCiii, synthetic PCiv (1 μM, 37 h), or DMSO as a vehicle. (E) Quantification of HA (β23) expression in SH-SY5Y cells from the indicated experimental groups in panel D (n = 3 experiments per group). (F) Representative immunofluorescence of steady state HA (β23) expression in SH-SY5Y cells expressing Tet-Off regulatable reporter mCherry and HA-tagged β23. HA-β23 was expressed for 24 h using the Tet-off system. Further expression of β23 was halted by Dox treatment in the presence of PCiii or PCiv (1 μM, 37 h). (G) Quantification of HA (β23) immunofluorescence signal in mCherry positive SH-SY5Y cells in each experimental group (n = 32 cells from three separate experiments per group). The data are expressed as means ± SEMs. * p < 0.05, ** p < 0.01, *** p < 0.001, and **** p < 0.0001, ANOVA test followed by Tukey’s post hoc analysis. Two-way ANOVA was used in panel C.
Human neuroblastoma SH-SY5Y cells (ATCC, Manassas, VA, USA) were grown in complete media containing DMEMs, 10% fetal bovine serum (vol/vol), and antibiotics (penicillin-streptomycin 100 U/mL, Thermo Fisher Scientific, Waltham, MA, USA). The atmospheric condition used to preserve the cells consisted of 5% CO2/95% air at 37 °C and maintained a humidified environment. X-tremeGENE HP transfection reagents (Roche, Basel, Switzerland) were used for transient transfection of DNA constructs (pCMV-tTA, TetP-β23, and pTet-dual2 [5]) following the manufacturer’s instructions.
SH-SY5Y cells were plated in 12-well plates at a density of 0.2 × 10^6 cells per well. Following transient transfection with the indicated constructs and subsequent treatment protocol, the cells were harvested by trypsinization, thereby yielding single-cell suspensions. The cells were washed twice with phosphate-buffered saline (PBS) and resuspended in serum-free DMEM. The resuspended cells were mixed with an equal volume of 0.4% trypan blue (w/v) and incubated for 2 min at room temperature. Live and dead cells were counted using a Countess II Automated Cell Counter (Life Technologies, Carlsbad, CA, USA) for assessing cell viability.

[4] = 1 μM every 2 days for 14 days, PFF 1 μg

Structure (SMILES) | PFF-induced neurotoxicity (neuron viability) [1] | endogenous α-synuclein expression [2] | effect on β23-induced cytotoxicity [3] | EC50 [3] | cytotoxicity of the compound at high concentrations [3] | PFF-induced elevation of filament conformation-αSyn signal [2, 4] | PFF-induced elevation of pS129-αSyn signal [2, 4]
C/C=C(\C)C(=O)O[C@@H]1c2c(ccc3ccc(=O)oc23)OC(C)(C)[C@H]1OC(C)=O (relative stereo) [PCiii, peucedanocoumarin III] | prevented | not affected | potently prevented | 318 nM | no obvious cytotoxicity |  | 
C/C=C(\C)C(=O)O[C@H]1[C@H](OC(C)=O)c2c(ccc3ccc(=O)oc23)OC1(C)C (relative stereo) [PCiv, trans-4′-acetyl-3′-tigloylkhellactone] | prevented | not affected | nearly equivalent cytoprotective biological function | 204 nM | no obvious cytotoxicity | mitigated | mitigated
